Assay results taken from the supplement of paper PMC10307832.

Columns and labels:
Experiment in all cases: relative viability (nuclei count vs DMSO), 5 days (fraction); higher = more cells survive
Gemcitabine = compound: Nc1ccn([C@@H]2O[C@H](CO)[C@@H](O)C2(F)F)c(=O)n1 [Gemcitabine]
Procedure, shortened: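 Lung cancer cell lines were seeded into 1536-well plates, kept overnight at 37 °C and pinned with five library-drug doses (not always all listed) spaced by √10. After 5 days, nuclei were Hoechst-stained, imaged at 4× and counted with MetaXpress. Viability is treated-well nuclei over vehicle-well nuclei, taken as a median across plates. Plates needed control CV below 25% and at least one doubling.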

Gemcitabine + Bortezomib = compound: Nc1ccn([C@@H]2O[C@H](CO)[C@@H](O)C2(F)F)c(=O)n1 [Gemcitabine] + CC(C)C[C@H](NC(=O)[C@H](Cc1ccccc1)NC(=O)c1cnccn1)B(O)O [Bortezomib] (partner 0.002 µM)
Procedure, shortened: (§1)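 Lung cancer cell lines were seeded in 1536-well plates and dosed by pin tool the next day, with either a single drug or a fixed anchor-drug dose combined with five library-drug doses (not always all listed) spaced in √10 steps. Five days later, one step fixed the cells and stained their nuclei (final 0.05% Triton X-100, 1% formaldehyde, 1 ug/ml Hoechst), and nuclei were counted on 4× images. Relative viability is the nuclei count in treated wells divided by the count in vehicle wells, and each value is the median of duplicate plates.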

Gemcitabine + Navitoclax = compound: Nc1ccn([C@@H]2O[C@H](CO)[C@@H](O)C2(F)F)c(=O)n1 [Gemcitabine] + CC1(C)CCC(c2ccc(Cl)cc2)=C(CN2CCN(c3ccc(C(=O)NS(=O)(=O)c4ccc(N[C@H](CCN5CCOCC5)CSc5ccccc5)c(S(=O)(=O)C(F)(F)F)c4)cc3)CC2)C1 [Navitoclax] (partner 0.5 µM)
Procedure, shortened: as §1

Gemcitabine + Foretinib = compound: Nc1ccn([C@@H]2O[C@H](CO)[C@@H](O)C2(F)F)c(=O)n1 [Gemcitabine] + COc1cc2c(Oc3ccc(NC(=O)C4(C(=O)Nc5ccc(F)cc5)CC4)cc3F)ccnc2cc1OCCCN1CCOCC1 [Foretinib] (partner 0.25 µM)
Procedure, shortened: as §1

Gemcitabine + Lapatinib = compound: Nc1ccn([C@@H]2O[C@H](CO)[C@@H](O)C2(F)F)c(=O)n1 [Gemcitabine] + CS(=O)(=O)CCNCc1ccc(-c2ccc3ncnc(Nc4ccc(OCc5cccc(F)c5)c(Cl)c4)c3c2)o1 [Lapatinib] (partner 2 µM)
Procedure, shortened: as §1

Gemcitabine + Pictilisib = compound: Nc1ccn([C@@H]2O[C@H](CO)[C@@H](O)C2(F)F)c(=O)n1 [Gemcitabine] + CS(=O)(=O)N1CCN(Cc2cc3nc(-c4cccc5[nH]ncc45)nc(N4CCOCC4)c3s2)CC1 [Pictilisib] (partner 1 µM)
Procedure, shortened: as §1

Gemcitabine + Crizotinib = compound: Nc1ccn([C@@H]2O[C@H](CO)[C@@H](O)C2(F)F)c(=O)n1 [Gemcitabine] + C[C@@H](Oc1cc(-c2cnn(C3CCNCC3)c2)cnc1N)c1c(Cl)ccc(F)c1Cl [Crizotinib] (partner 1 µM)
Procedure, shortened: as §1

Gemcitabine + Linsitinib = compound: Nc1ccn([C@@H]2O[C@H](CO)[C@@H](O)C2(F)F)c(=O)n1 [Gemcitabine] + C[C@]1(O)C[C@@H](c2nc(-c3ccc4ccc(-c5ccccc5)nc4c3)c3c(N)nccn32)C1 [Linsitinib] (partner 1 µM)
Procedure, shortened: as §1

Gemcitabine + Alpelisib = compound: Nc1ccn([C@@H]2O[C@H](CO)[C@@H](O)C2(F)F)c(=O)n1 [Gemcitabine] + Cc1nc(NC(=O)N2CCC[C@H]2C(N)=O)sc1-c1ccnc(C(C)(C)C(F)(F)F)c1 [Alpelisib] (partner 2 µM)
Procedure, shortened: as §1

Gemcitabine + Vorinostat = compound: Nc1ccn([C@@H]2O[C@H](CO)[C@@H](O)C2(F)F)c(=O)n1 [Gemcitabine] + O=C(CCCCCCC(=O)Nc1ccccc1)NO [Vorinostat] (partner 1 µM)
Procedure, shortened: as §1

Gemcitabine + Olaparib = compound: Nc1ccn([C@@H]2O[C@H](CO)[C@@H](O)C2(F)F)c(=O)n1 [Gemcitabine] + O=C(c1cc(Cc2n[nH]c(=O)c3ccccc23)ccc1F)N1CCN(C(=O)C2CC2)CC1 [Olaparib] (partner 8 µM)
Procedure, shortened: as §1

IA-LM
relative viability (Gemcitabine; 0.001 µM): 0.963
relative viability (Gemcitabine; 0.003162 µM): 0.88
relative viability (Gemcitabine; 0.01 µM): 0.74
relative viability (Gemcitabine; 0.03162 µM): 0.108
relative viability (Gemcitabine; 0.1 µM): 0.0519
relative viability (Gemcitabine + Bortezomib; first compound 0.001 µM): 0.882
relative viability (Gemcitabine + Bortezomib; first compound 0.003162 µM): 0.805
relative viability (Gemcitabine + Bortezomib; first compound 0.01 µM): 0.651
relative viability (Gemcitabine + Bortezomib; first compound 0.03162 µM): 0.0803
relative viability (Gemcitabine + Bortezomib; first compound 0.1 µM): 0.0498
relative viability (Gemcitabine + Navitoclax; first compound 0.001 µM): 0.896
relative viability (Gemcitabine + Navitoclax; first compound 0.003162 µM): 0.796
relative viability (Gemcitabine + Navitoclax; first compound 0.01 µM): 0.409
relative viability (Gemcitabine + Navitoclax; first compound 0.03162 µM): 0.0336
relative viability (Gemcitabine + Navitoclax; first compound 0.1 µM): 0.0251
relative viability (Gemcitabine + Foretinib; first compound 0.001 µM): 1.07
relative viability (Gemcitabine + Foretinib; first compound 0.003162 µM): 0.916
relative viability (Gemcitabine + Foretinib; first compound 0.01 µM): 1.11
relative viability (Gemcitabine + Foretinib; first compound 0.03162 µM): 0.0445
relative viability (Gemcitabine + Foretinib; first compound 0.1 µM): 0.0363
relative viability (Gemcitabine + Lapatinib; first compound 0.003162 µM): 0.853
relative viability (Gemcitabine + Lapatinib; first compound 0.01 µM): 0.353
relative viability (Gemcitabine + Lapatinib; first compound 0.03162 µM): 0.124
relative viability (Gemcitabine + Lapatinib; first compound 0.1 µM): 0.0354
relative viability (Gemcitabine + Pictilisib; first compound 0.001 µM): 0.336
relative viability (Gemcitabine + Pictilisib; first compound 0.003162 µM): 0.332
relative viability (Gemcitabine + Pictilisib; first compound 0.01 µM): 0.219
relative viability (Gemcitabine + Pictilisib; first compound 0.03162 µM): 0.1
relative viability (Gemcitabine + Pictilisib; first compound 0.1 µM): 0.0556
relative viability (Gemcitabine + Crizotinib; first compound 0.003162 µM): 0.615
relative viability (Gemcitabine + Crizotinib; first compound 0.01 µM): 0.254
relative viability (Gemcitabine + Crizotinib; first compound 0.03162 µM): 0.0992
relative viability (Gemcitabine + Crizotinib; first compound 0.1 µM): 0.0456
relative viability (Gemcitabine + Linsitinib; first compound 0.001 µM): 0.768
relative viability (Gemcitabine + Linsitinib; first compound 0.003162 µM): 0.461
relative viability (Gemcitabine + Linsitinib; first compound 0.01 µM): 0.324
relative viability (Gemcitabine + Linsitinib; first compound 0.03162 µM): 0.149
relative viability (Gemcitabine + Linsitinib; first compound 0.1 µM): 0.0467
relative viability (Gemcitabine + Alpelisib; first compound 0.001 µM): 0.789
relative viability (Gemcitabine + Alpelisib; first compound 0.003162 µM): 0.644
relative viability (Gemcitabine + Alpelisib; first compound 0.01 µM): 0.744
relative viability (Gemcitabine + Alpelisib; first compound 0.03162 µM): 0.0658
relative viability (Gemcitabine + Alpelisib; first compound 0.1 µM): 0.0561
relative viability (Gemcitabine + Vorinostat; first compound 0.001 µM): 0.943
relative viability (Gemcitabine + Vorinostat; first compound 0.003162 µM): 0.907
relative viability (Gemcitabine + Vorinostat; first compound 0.01 µM): 0.865
relative viability (Gemcitabine + Vorinostat; first compound 0.03162 µM): 0.0796
relative viability (Gemcitabine + Vorinostat; first compound 0.1 µM): 0.0532
relative viability (Gemcitabine + Olaparib; first compound 0.001 µM): 0.854
relative viability (Gemcitabine + Olaparib; first compound 0.003162 µM): 0.788
relative viability (Gemcitabine + Olaparib; first compound 0.01 µM): 0.797
relative viability (Gemcitabine + Olaparib; first compound 0.03162 µM): 0.0888
relative viability (Gemcitabine + Olaparib; first compound 0.1 µM): 0.0689
